# Read-outs that look alike come from different tables or passages of the source. Starred links: 1 amine or outer side, 2 acyl side, 3 side chain; linkers in the order of their positions; H or OH if unused. Positions of bridges follow the written chain, without caps; N, C: chain ends. Non-standard residues stand in square brackets, D forms with d. Residues, ends and D or L forms follow the SMILES beside them. Chains are numbered I, II in the order given. Actinocin(9to1) = Cc1c2oc3c(C)ccc(C(=O)[*:1])c3nc-2c(C(=O)[*:2])c(N)c1=O; NMeV = CN[C@H](C(=O)O)C(C)C; Sar = CNCC(=O)O
# Tests used:
# PfUDN [1] = experiment: ssDNA-dependent ATPase assay of PfUDN; format: biochemical, Plasmodium falciparum; details: for effect on ssDNA dependent ATPase activity of PfUDN: compound 20 μM, PfUDN 100 nM, reaction mixture (DNA) preincubated 15 min with compound, Figure 1A; for IC50: inhibitor 0.2-5.0 μM (ciprofloxacin 0.5-30 μM), read-out: IC50, inhibition of ssDNA-dependent ATPase activity of PfUDN
# Protocol: Standard protocol of ATPase assay was followed as described in the previous report. The hydrolysis of ATP catalyzed by PfUDN was assayed by measuring the formation of Pi from [γ-^32P] ATP. The reaction mixture of 10 μl contained [γ-^32P] ATP (specific activity 222 TBq.mmol^-1) and cold ATP (1 mM), ATPase buffer (20 mM Tris-HCl, pH 8.0, 8 mM DTT, 1.0 mM MgCl2, 20 mM KCl and 16 μg/ml BSA), purified PfUDN and 50 ng or 100 ng of M13 mp19 ssDNA. The reaction mixtures were incubated at 37°C for 60 min. This was followed by thin layer chromatography (TLC), and the quantitation was done using Alpha Imager-EP/Image-J software ( http://rsbweb.nih.gov/ij/). In order to study the effect of various compounds on ssDNA-dependent ATPase activity, different compounds were added into the reaction mixture prior to the addition of the PfUDN. In another set of experiment, PfUDN was pre-incubated (15 min) with these compounds in order to obtain the insight of inhibitory mechanism. All the experiments were performed at least two times and quantification data was used to calculate the standard deviation using Microsoft Excel 2010 and mean value was used to prepare the graph.
# PfUDN [2] = experiment: DNA helicase (unwinding) assay of PfUDN; format: biochemical, Plasmodium falciparum; details: for effect on DNA unwinding (helicase) activity of PfUDN: compound 20 μM, partial duplex substrate, Figure 3; for IC50: inhibitor 0.5-5.0 μM, unit printed in text b27, not in table or picture labels, read-out: IC50, inhibition of helicase (DNA unwinding) activity of PfUDN; for effect on helicase activity of PfUDN at lower concentration: upto 5 μM concentration tested (data not shown)
# Protocol: The specially designed partial duplex substrate consisted of a ^32P-labelled 47-mer DNA oligodeoxynucleotide annealed to M13mp19 phage ssDNA. This oligodeoxynucleotide of the nucleotide sequence 5'- (T)15[…](T)15-3' contains 15 base-pairs of non-complementary region (T)15 at both the 5’ and 3’ ends. Oligodeoxynucleotide was labeled at 5′-end with T4 polynucleotide kinase (PNK) (5U) (New England Biolabs) and 1.85 MBq of [γ-^32P] ATP (specific activity 222 TBq/mmol) at 37°C for one hour and then annealed using standard annealing buffer (20 mM Tris-HCl, pH 7.5, 10 mM MgCl2, 100 mM NaCl, 1 mM DTT) with 0.5 μg of single-stranded circular M13mp19 (+) phage DNA by heating at 95°C for 1 min and then transferring immediately to 65°C for 2 min and then slow cooling to room temperature. Using gel filtration through a Sepharose 4B column (Pharmacia, Sweden) the non-hybridized oligodeoxynucleotide was removed. The reaction volume of 10 μl containing the ^32P-labeled helicase substrate (1000 cpm/10 μl) in appropriate buffer (20 mMTris-HCl, pH 8.0, 8 mM DTT, 1.0 mM MgCl2, 20 mMKCl and 16 μg/ml BSA) and PfUDN was incubated at 37°C for 60 min. The substrate and products were separated by electrophoresis on a nondenaturing 12% PAGE and the gel was exposed to hyper film for autoradiography or scanned on phosphoimager. In order to study the effect of DNA-interacting compounds on helicase activity, different compounds were added to the helicase reaction mixture prior to the addition of the PfUDN helicase. All the experiments were performed in duplicate and quantitation of both the substrate and unwound DNA bands was done using AlphaImager-EP/Image-J software ( http://rsbweb.nih.gov/ij/). Quantification data was used to calculate the standard deviation using Microsoft Excel 2010 and mean value was used to prepare the graph.
# PfH45 [3] = details: comparison column of Table 1; no unit and no reference given; read-out: inhibitory potential for ATPase activity, PfH45; cited from earlier work
# PfD66/PfDDX19 [4] = details: comparison column of Table 1; no unit and no reference given; read-out: inhibitory potential for ATPase activity, PfD66/PfDDX19; cited from earlier work
# PfDH60 [5] = details: comparison column of Table 1; no unit and no reference given; read-out: inhibitory potential for ATPase activity, PfDH60; cited from earlier work
# PfH45 [6] = details: Table 2; no unit and no reference given; read-out: inhibitory potential for helicase activity, PfH45; cited from earlier work
# PfD66/PfDDX19 [7] = details: Table 2; no unit and no reference given; read-out: inhibitory potential for helicase activity, PfD66/PfDDX19; cited from earlier work
# PfDH60 [8] = details: Table 2; no unit and no reference given; read-out: inhibitory potential for helicase activity, PfDH60; cited from earlier work
# malaria parasite = details: cited from earlier work
# [9] = unit printed in text b20, not in table or picture labels
structure (smiles),measurement,setting,value
"CC[n+]1c(-c2ccccc2)c2cc(N)ccc2c2ccc(N)cc21 [Ethidium bromide, ethidium bromide]",effect on ssDNA dependent ATPase activity of PfUDN,PfUDN [1],top four inhibitors
same,effect on DNA unwinding (helicase) activity of PfUDN,PfUDN [2],inhibit the DNA unwinding activity of PfUDN effectively
same,IC50,PfUDN [2],4.8 µM
same,IC50,PfH45 [3],1.5 µM
same,IC50,PfD66/PfDDX19 [4],1.5 µM
same,IC50,PfDH60 [5],2.5 µM
same,IC50,PfH45 [6],1 µM
same,IC50,PfD66/PfDDX19 [7],1 µM
same,IC50,PfDH60 [8],1.5 µM
"Cc1c2oc3c(C)ccc(C(=O)N[C@@H]4C(=O)N[C@H](C(C)C)C(=O)N5CCC[C@H]5C(=O)N(C)CC(=O)N(C)[C@@H](C(C)C)C(=O)O[C@@H]4C)c3nc-2c(C(=O)N[C@@H]2C(=O)N[C@H](C(C)C)C(=O)N3CCC[C@H]3C(=O)N(C)CC(=O)N(C)[C@@H](C(C)C)C(=O)O[C@@H]2C)c(N)c1=O [actinomycin] (I: T[dV]P[Sar][NMeV] / II: T[dV]P[Sar][NMeV]; ester I:1-I:C, II:1-II:C; linker I:N-II:N via Actinocin(9to1))",effect on ssDNA dependent ATPase activity of PfUDN,PfUDN [1],not able to considerably inhibit
same,effect on DNA unwinding (helicase) activity of PfUDN,PfUDN [2],not able to considerably inhibit
N.N.[Cl][Pt][Cl] [cisplatin],effect on ssDNA dependent ATPase activity of PfUDN,PfUDN [1],not able to considerably inhibit
same,effect on DNA unwinding (helicase) activity of PfUDN,PfUDN [2],not able to considerably inhibit
N=C(N)c1ccc(-c2cc3ccc(C(=N)N)cc3[nH]2)cc1 [DAPI],effect on ssDNA dependent ATPase activity of PfUDN,PfUDN [1],inhibit
O=P1(N(CCCl)CCCl)NCCCO1 (centres unmarked) [cyclophosphamide],effect on ssDNA dependent ATPase activity of PfUDN,PfUDN [1],not able to considerably inhibit
same,effect on DNA unwinding (helicase) activity of PfUDN,PfUDN [2],not able to considerably inhibit
COc1cc([C@@H]2c3cc4c(cc3[C@@H](O[C@@H]3O[C@@H]5CO[C@@H](C)O[C@H]5[C@H](O)[C@H]3O)[C@H]3COC(=O)[C@H]23)OCO4)cc(OC)c1O [etoposide],effect on ssDNA dependent ATPase activity of PfUDN,PfUDN [1],not able to considerably inhibit
same,effect on DNA unwinding (helicase) activity of PfUDN,PfUDN [2],blocks the helicase activity appreciably
same,effect on helicase activity of PfUDN at lower concentration,PfUDN [2],failed to show appreciable inhibition
"Cn1cc(NC(=O)c2cc(NC(=O)CN=C(N)N)cn2C)cc1C(=O)NCCC(=N)N [Netropsin, netropsin]",effect on ssDNA dependent ATPase activity of PfUDN,PfUDN [1],top four inhibitors
same,IC50,PfUDN [1]; [9],3.1 µM
same,effect on DNA unwinding (helicase) activity of PfUDN,PfUDN [2],inhibit the DNA unwinding activity of PfUDN effectively
same,IC50,PfUDN [2],4.7 µM
same,IC50,PfH45 [3],1.5 µM
same,IC50,PfD66/PfDDX19 [4],1 µM
same,IC50,PfH45 [6],0.5 µM
same,IC50,PfD66/PfDDX19 [7],0.5 µM
same,IC50,PfDH60 [8],1.2 µM
CC[C@@]1(O)C(=O)OCc2c1cc1n(c2=O)Cc2cc3ccccc3nc2-1 [camptothecin],effect on ssDNA dependent ATPase activity of PfUDN,PfUDN [1],not able to considerably inhibit
same,effect on DNA unwinding (helicase) activity of PfUDN,PfUDN [2],not able to considerably inhibit
CO[C@@H]1[C@@H](OC(N)=O)[C@@H](O)[C@H](Oc2ccc3c(O)c(NC(=O)c4ccc(O)c(CC=C(C)C)c4)c(=O)oc3c2C)OC1(C)C [novobiocin],effect on ssDNA dependent ATPase activity of PfUDN,PfUDN [1],not able to considerably inhibit
same,effect on DNA unwinding (helicase) activity of PfUDN,PfUDN [2],not able to considerably inhibit
"COC(=O)[C@@H]1c2cc3c(c(O)c2[C@@H](O[C@@H]2O[C@@H](C)[C@H](OC)[C@@](C)(OC)[C@H]2OC)C[C@]1(C)O)C(=O)c1c(O)cc2c(c1C3=O)O[C@@H]1O[C@@]2(C)[C@H](O)[C@@H](N(C)C)[C@@H]1O [Nogalamycin, nogalamycin]",effect on ssDNA dependent ATPase activity of PfUDN,PfUDN [1],top four inhibitors
same,IC50,PfUDN [1]; [9],3.3 µM
same,effect on DNA unwinding (helicase) activity of PfUDN,PfUDN [2],inhibit the DNA unwinding activity of PfUDN effectively
same,IC50,PfUDN [2],3.5 µM
same,IC50,PfH45 [3],0.8 µM
same,IC50,PfDH60 [5],0.5 µM
same,IC50,PfH45 [6],0.5 µM
same,IC50,PfD66/PfDDX19 [7],5 µM
same,IC50,PfDH60 [8],2 µM
"O=C(O)c1cn(C2CC2)c2cc(N3CCNCC3)c(F)cc2c1=O [Ciprofloxacin, ciprofloxacin]",effect on ssDNA dependent ATPase activity of PfUDN,PfUDN [1],weakly inhibit
same,IC50,"PfUDN [1]; unit printed in text b20, not in table or picture labels, listed as ciprofloxacin",~10 µM
same,IC50,PfUDN [1]; [9],9.9 µM
same,effect on DNA unwinding (helicase) activity of PfUDN,PfUDN [2],inhibit the DNA unwinding activity of PfUDN effectively
same,effect on helicase activity of PfUDN at lower concentration,PfUDN [2],failed to show appreciable inhibition
same,inhibition of malaria parasite growth,malaria parasite,found effective
"COc1cccc2c1C(=O)c1c(O)c3c(c(O)c1C2=O)C[C@@](O)(C(C)=O)C[C@@H]3O[C@H]1C[C@H](N)[C@H](O)[C@H](C)O1 [Daunorubicin, daunorubicin]",effect on ssDNA dependent ATPase activity of PfUDN,PfUDN [1],top four inhibitors
same,IC50,PfUDN [1],~3 µM
same,effect on DNA unwinding (helicase) activity of PfUDN,PfUDN [2],inhibit the DNA unwinding activity of PfUDN effectively
same,IC50,PfUDN [2]; listed as daunorubicin,~3 µM
same,IC50,PfUDN [2],3 µM
same,IC50,PfH45 [3],5 µM
same,IC50,PfH45 [6],1.5 µM
same,IC50,PfDH60 [8],0.3 µM
O=c1c(-c2ccc(O)cc2)coc2cc(O)cc(O)c12 [genistein],effect on ssDNA dependent ATPase activity of PfUDN,PfUDN [1],not able to considerably inhibit
same,effect on DNA unwinding (helicase) activity of PfUDN,PfUDN [2],not able to considerably inhibit
O=c1c(O)c(-c2ccc(O)cc2O)oc2cc(O)cc(O)c12 [morin],effect on ssDNA dependent ATPase activity of PfUDN,PfUDN [1],weakly inhibit
same,effect on DNA unwinding (helicase) activity of PfUDN,PfUDN [2],not able to considerably inhibit

# Source: publication PMC4234510, “Plasmodium falciparum UvrD activities are downregulated by DNA-interacting compounds and its dsRNA inhibits malaria parasite growth” (BMC Biochemistry, 2014)
